These results are taken from patent US20250115600A1, “COVALENT MODIFIERS OF AKT1 AND USES THEREOF” (Terremoto Biosciences, Inc., priority 2022, published 2025).

Usually IC50 stands for the midpoint of a concentration-inhibition curve.

In data set [1] the target is T1, AKT1 E17K (Homo sapiens (Human), UniProt P31749, E17K). Kind of data set: Live cell target engagement (NanoBRET) in HEK293 cells. Type of data set: cell-based. On the technique in general: Bioluminescence resonance energy transfer reports proximity on the nanometre scale.
Target sequence in this assay (P31749 whole entry E17K): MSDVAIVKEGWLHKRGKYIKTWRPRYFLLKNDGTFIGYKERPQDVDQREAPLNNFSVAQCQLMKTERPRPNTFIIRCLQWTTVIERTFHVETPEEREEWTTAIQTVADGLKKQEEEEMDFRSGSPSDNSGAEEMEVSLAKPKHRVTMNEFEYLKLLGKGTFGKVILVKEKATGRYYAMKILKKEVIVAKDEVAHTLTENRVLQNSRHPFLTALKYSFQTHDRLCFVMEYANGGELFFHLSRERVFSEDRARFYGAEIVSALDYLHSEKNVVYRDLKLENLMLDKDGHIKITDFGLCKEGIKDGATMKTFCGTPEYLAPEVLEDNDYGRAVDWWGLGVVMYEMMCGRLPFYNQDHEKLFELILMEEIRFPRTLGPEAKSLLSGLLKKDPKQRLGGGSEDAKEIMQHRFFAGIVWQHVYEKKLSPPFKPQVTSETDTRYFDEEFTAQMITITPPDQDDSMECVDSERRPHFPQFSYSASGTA
The target of data set [2] is T2, AKT1 WT (Homo sapiens (Human), UniProt P31749). The description is as above. Type of data set: cell-based.
Target sequence in this assay (P31749 whole entry): as the sequence (P31749 whole entry E17K) above, with K17E counted along it
Data set [3] has as its target T1, AKT1 E17K. The experiment in a line: Dissociation rate of Compound A and Compound B by competition with ARQ-092, LCMS. The data set is classed as binding. To be noted: for AKT1 E17K t1/2: compound 5 μM, 15 minutes, then ARQ-092 50 μM, 25 mM HEPES pH 8.0, 150 mM NaCl; for Off-rate Selectivity E17K/WT: ratio of t1/2. As for the experimental part:
(§1) Determination of compound dissociation rate by intact protein mass spectrometry:Recombinant AKT1 containing appropriate mutations (1 μM) was treated with inhibitor (5 μM) at room temperature. After 15 minutes, ARQ-092 (50 μM final concentration) was added to prevent aldehyde-containing compound rebinding after initial dissociation. At various timepoints, aliquots were removed and quenched with 5 mM NaBH4 to capture the reversible imine through reductive amination, then analyzed by LCMS. Deconvoluted monoisotopic intensities of unmodified vs. compound-modified mass peaks were compared.
(§2) AKT1(E17K or WT) (1 μM) was incubated with Compound A or Compound B (5 μM) for 15 minutes in 25 mM HEPES pH 8.0, 150 mM NaCl buffer. Then ARQ-092 (50 μM) was added and aliquots quenched with 5 mM NaBH4 at a series of timepoints and the percentage labelling determined by LCMS. FIG. 32A and FIG. 32B provide competition data (dissociation rates) for Compound A and Compound B in both wild-type AKT1 and AKT1 E17K against ARQ-092. Table 8 provides half-life data based on the dissociation studies described herein.
Target sequence in this assay (P31749 2-480 E17K): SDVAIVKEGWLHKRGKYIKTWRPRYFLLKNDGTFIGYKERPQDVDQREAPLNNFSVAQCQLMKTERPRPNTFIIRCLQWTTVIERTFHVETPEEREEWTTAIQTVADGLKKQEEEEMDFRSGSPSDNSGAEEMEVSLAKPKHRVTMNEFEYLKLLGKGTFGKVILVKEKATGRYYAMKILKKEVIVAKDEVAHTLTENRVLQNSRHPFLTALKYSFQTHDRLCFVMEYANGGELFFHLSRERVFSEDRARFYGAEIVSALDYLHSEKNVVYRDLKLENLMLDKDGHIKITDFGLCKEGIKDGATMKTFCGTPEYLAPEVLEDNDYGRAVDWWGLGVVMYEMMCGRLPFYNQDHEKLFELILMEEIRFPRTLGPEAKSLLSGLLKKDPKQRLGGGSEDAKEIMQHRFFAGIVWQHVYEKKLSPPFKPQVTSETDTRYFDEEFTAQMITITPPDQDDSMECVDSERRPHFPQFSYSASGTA

The target in data set [4] is T2, AKT1 WT. The description is as above. Type of data set: binding. To be noted: compound 5 μM, 15 minutes, then ARQ-092 50 μM; 25 mM HEPES pH 8.0, 150 mM NaCl. As for the experimental part: as §1, §2
Target sequence in this assay (P31749 2-480): as the sequence (P31749 2-480 E17K) above, with K16E counted along it
The target in a further data set is AKT2 (Homo sapiens (Human), UniProt P31751). The experiment in a line: Live cell target engagement (NanoBRET) in HEK293 cells. The data set is classed as cell-based.
The target in a further data set is BEAS2B-AKT1(WT) (Homo sapiens (Human), UniProt P31749). The experiment in a line: Washout, target engagement durability in intact cells (in-gel fluorescence). The data set is classed as cell-based. To be noted: incubation 0.5 hr; 21 hours of dilution compared to 1 hour. As for the experimental part: (§3) FIG. 31 illustrates in-gel fluorescence and western blot wash out experiments of BEAS2B-AKT1(WT) and BEAS2B-AKT1(E17K) following incubation of the cells with Compound B for 0.5 hr. Wash out periods were 0 hr, 0.5 hr, 1 hr, 1.5 hr, 3 hrs, and 21 hrs.
(§4) Measurement of target engagement durability in intact cells: Beas-2b cells stably over-expressing either Flag-AKT1 WT or Flag-AKT1 E17K were treated with compound for 30 minutes at 37 C. The media was then aspirated and replaced with fresh media and the cells were incubated at 37° C. At various timepoints, cells were washed with PBS and then lysed in buffer containing 5 mM NaBH4. After 1 h, the lysate was precipitated in MeOH/CHCl3, resuspended in 1% SDS in PBS and then subjected to copper catalyzed click chemistry with TAMRA-biotin-azide. The samples were precipitated again and then resuspended in 1.5× SDS loading buffer, separated by SDS-PAGE and analyzed by in-gel fluorescence and western blot.

Another data set addresses BEAS2B-AKT1(E17K) (Homo sapiens (Human), UniProt P31749, E17K). The description is as above. The data set is classed as cell-based. As for the experimental part:
as §3, §4

The target in another data set is AKT1 E17K mutant protein (Homo sapiens (Human), UniProt P31749, E17K). Kind of data set: Intact mass spectrometry, covalent complex formation and ARQ-092 competition. The data set is classed as binding. To be noted: protein 1 μM, compound 1.5 μM, 2 hrs at 37° C., NaBH4 reduction. A digest of the protocol: (§5)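 AKT1 WT or E17K (1 μM) was incubated with compound (1.5 μM) for 2 hrs at 37° C., with or without ARQ092 (50 μM) competitor as specificity control. Imines were reduced with 5 mM NaBH4 for 5 min, quenched in acetonitrile+1% TFA, and covalent adducts read by intact-mass LCMS.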

In data set [5] the target is T2, AKT1 WT. The description is as above. The data set is classed as binding. The note with it: protein 1 μM, compound 1.5 μM, 2 hrs at 37° C., NaBH4 reduction. A digest of the protocol:
as §5
Target sequence in this assay (P31749 2-480): as the sequence (P31749 2-480 E17K) above, with K16E counted along it

Data set [6] addresses T1, AKT1 E17K. Kind of data set: Dissociation rate by intact protein LCMS after ARQ092 chase. Type of data set: binding. As for the experimental part: (§6) AKT1 WT or AKT1 E17K (1 μM) were treated with a compound of Table 1 (1.5 μM) for 2 hours at 37° C., then ARQ092 (50 μM final concentration) was added to prevent aldehyde-containing compound rebinding after initial dissociation. At various timepoints, aliquots were removed and quenched with 5 mM NaBH4 for 5 min to capture the reversible imine through reductive amination. Reduction reactions were quenched by diluting the sample in equal volume acetonitrile+1% TFA, then analyzed by LCMS. Deconvoluted monoisotopic intensities of unmodified vs. compound-modified mass peaks were compared.
Target sequence in this assay (P31749 2-480 E17K): as the sequence (P31749 2-480 E17K) above

Data set [7] has as its target T2, AKT1 WT. The data set is described as above. Type of data set: binding. The note with it: compound 1.5 μM, 2 hours at 37° C., then ARQ092 50 μM. As for the experimental part: as §6
Target sequence in this assay (P31749 2-480): as the sequence (P31749 2-480 E17K) above, with K16E counted along it

Sequence of AKT2 (P31751 whole entry): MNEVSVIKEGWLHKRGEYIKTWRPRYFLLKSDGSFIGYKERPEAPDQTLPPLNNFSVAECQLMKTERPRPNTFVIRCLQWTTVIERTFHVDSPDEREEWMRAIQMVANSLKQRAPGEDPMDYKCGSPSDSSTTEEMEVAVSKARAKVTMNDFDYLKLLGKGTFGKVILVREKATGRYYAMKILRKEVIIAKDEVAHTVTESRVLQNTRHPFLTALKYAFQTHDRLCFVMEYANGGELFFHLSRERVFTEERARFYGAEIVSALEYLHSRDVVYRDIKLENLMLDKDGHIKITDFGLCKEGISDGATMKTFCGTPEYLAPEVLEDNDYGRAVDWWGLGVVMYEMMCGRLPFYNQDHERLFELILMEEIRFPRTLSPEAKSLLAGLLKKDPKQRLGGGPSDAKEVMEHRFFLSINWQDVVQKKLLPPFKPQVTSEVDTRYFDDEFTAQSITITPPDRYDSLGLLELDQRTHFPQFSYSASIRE
Sequence of BEAS2B-AKT1(E17K) (P31749 whole entry E17K): as the sequence (P31749 whole entry E17K) above
Sequence of AKT1 E17K mutant protein (P31749 2-480 E17K): as the sequence (P31749 2-480 E17K) above
Sequence of BEAS2B-AKT1(WT) (P31749 whole entry): as the sequence (P31749 whole entry E17K) above, with K17E counted along it

Turning to `C#Cc1cccc(-c2ccc3nc(-c4cccnc4N)n(-c4ccc(CNC(=O)c5ccc(C=O)c(O)c5)cc4)c3n2)c1` [Compound A, N-(4-(2-(2-aminopyridin-3-yl)-5-(3-ethynylphenyl)-3H-imidazo[4,5-b]pyridin-3-yl)benzyl)-4-formyl-3-hydroxybenzamide], the half-inhibitory concentration (IC50) against AKT1 E17K [1] (HEK293, 2 h at 37 C, Table 7) was 100 to 500 nM; at AKT1 WT [2] (HEK293, 2 h at 37 C, Table 7), under 100 nM; on AKT2 (HEK293, 2 h at 37 C, Table 7), over 500 nM. Moreover, the “AKT1 E17K t1/2” value on AKT1 E17K [3] came to 8.2 min. In addition, the “Off-rate Selectivity E17K/WT” value on AKT1 E17K [3] came to 1.6. The “AKT1 (WT) t1/2” value on AKT1 WT [4] was found to be 5 min.

Take `C#Cc1cccc(-c2ccc3nc(-c4cccnc4N)n(-c4ccc(CNCCc5ccc(C=O)c(O)c5)cc4)c3n2)c1` [Compound B, 4-(2-((4-(2-(2-aminopyridin-3-yl)-5-(3-ethynylphenyl)-3H-imidazo[4,5-b]pyridin-3-yl)benzyl)amino)ethyl)-2-hydroxybenzaldehyde]: the “extent of binding to WT-AKT1 after washout” value on BEAS2B-AKT1(WT) is reported as “markedly diminished”. Besides, the “extent of binding to E17K AKT1 after washout” value at BEAS2B-AKT1(E17K) (incubation 0.5 hr, 21 hour of washout compared to 1 hour) is “roughly equivalent to binding after 1 hour of washout”. In addition, the “selectivity of binding, E17K AKT1 versus WT-AKT1” value on BEAS2B-AKT1(E17K) (washout experiment) is reported as “binds with substantial selectively to K17 in E17K AKT1”. The IC50 was under 100 nM against AKT1 E17K [1] (HEK293, 2 h at 37 C, Table 7); 100 to 500 nM against AKT1 WT [2] (HEK293, 2 h at 37 C, Table 7); over 500 nM at AKT2 (HEK293, 2 h at 37 C, Table 7). Moreover, the “AKT1 E17K t1/2” value at AKT1 E17K [3] amounted to 1037 min. Also, the “Off-rate Selectivity E17K/WT” value at AKT1 E17K [3] is 14.7. The “AKT1 (WT) t1/2” value at AKT1 WT [4] came out at 72.7 min.

Regarding `Nc1ncccc1-c1nc2ccc(-c3cccc(N4CCOCC4)c3)nc2n1-c1ccc(CNC(=O)Cc2ccc(C=O)c(O)c2F)cc1` [Example 21, N-({4-[2-(2-aminopyridin-3-yl)-5-[3-(morpholin-4-yl)phenyl]imidazo[4,5-b]pyridin-3-yl]phenyl}methyl)-2-(2-fluoro-4-formyl-3-hydroxyphenyl)acetamide], on AKT1 E17K mutant protein (absence of competitor), the “covalent complex formation with AKT1 E17K mutant protein” value is “significant presence of a covalent complex”. On AKT1 E17K mutant protein (with ARQ092 (50 μM)), the “covalent complex formation with AKT1 E17K mutant protein in presence of competitor” value is “Essentially no covalent complex formation”. Moreover, the “covalent complex formation with AKT1 WT protein” value at AKT1 WT [5] (absence of competitor) is given as “significant presence of a covalent complex”. Further, at AKT1 WT [5] (with ARQ092 (50 μM)), the “covalent complex formation with AKT1 WT protein in presence of competitor” value was “Essentially no covalent complex formation”. The “AKT1 E17K IC50: Selectivity vs AKT1 WT” value at AKT1 E17K [1] turned out to be 1.5. Besides, the “AKT1 E17K IC50: Selectivity vs AKT2” value on AKT1 E17K [1] turned out to be 4.8. Further, the half-inhibitory concentration (IC50) was under 100 nM against AKT1 E17K [1] (HEK293, 2 hours at 37° C.); under 100 nM on AKT1 WT [2] (HEK293, 2 hours at 37° C.); under 100 nM on AKT2 (HEK293, 2 hours at 37° C.). The “AKT1 E17K t1/2” value at AKT1 E17K [6] (compound 1.5 μM, 2 hours at 37° C., then ARQ092 50 μM) was determined as 68.2 min. Further, the “Off-rate Selectivity E17K/WT” value at AKT1 E17K [6] (ratio of t1/2) is recorded as 1.5. In addition, the “AKT1 (WT) t1/2” value at AKT1 WT [7] was found to be 45.3 min.
